# From PMC7377239, “Cardiovascular Effects of Polychlorinated Biphenyls and Their Major Metabolites” (Environmental Health Perspectives, 2020)
# Read-outs that look alike come from different tables or passages of the source.
# Tests used:
# HUVECs = experiment: High-content imaging cytotoxicity in HUVECs, 24 h; format: cell-based, human; details: Homo sapiens, HUVEC, 24 h, HUVEC, 24 hr
# Procedure, shortened: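 Confluent HUVEC monolayers, passages 1–5, received test chemicals for 24 h. Cytotoxicity was scored from triple-stain high-content images, with PODs defined by a one-SD deviation from 0.5% DMSO vehicle controls.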
# [1] = test system: iCell endothelial cells (human iPSC-derived ECs); experiment: High-content imaging cytotoxicity in iCell endothelial cells, 24 h; format: cell-based; details: for minimal effective concentration: Homo sapiens, Endothelial cell, endothelial cells (endo), 24 hr
# Procedure, shortened: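 Readouts were vehicle-normalised and fitted to a four-parameter logistic model. POD was set at one SD beyond 0.5% DMSO control means, and 100 µM was assigned when no response was seen. Cells were monolayers of iCell endothelial cells imaged after 24 h compound exposure using nuclear, mitochondrial and calcein dyes.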
# [2] = cyto, read-out: POD huvec.cyto.24hr
# [3] = mito, read-out: POD huvec.mito.24hr
# [4] = mitoint, read-out: POD huvec.mitoint.24hr
# [5] = nma, read-out: POD huvec.nma.24hr
# [6] = tc, read-out: POD huvec.tc.24hr
# [7] = cyto, read-out: POD endo.cyto.24hr
# [8] = mito, read-out: POD endo.mito.24hr
# [9] = mitoint, read-out: POD endo.mitoint.24hr
# [10] = nma, read-out: POD endo.nma.24hr
smiles,measurement,setting,value
"Clc1cccc(-c2cccc(Cl)c2)c1 [PCB 11, 3,3′-Dichlorobiphenyl]",minimal effective concentration,HUVECs; [2],11.2 µM
same,minimal effective concentration,HUVECs; [3],9.68 µM
same,minimal effective concentration,HUVECs; [4],7.62 µM
same,minimal effective concentration,HUVECs; [5],9.3 µM
same,minimal effective concentration,HUVECs; [6],11.2 µM
same,minimal effective concentration,[1]; [7],100 µM
same,minimal effective concentration,[1]; [8],100 µM
same,minimal effective concentration,[1]; [9],100 µM
same,minimal effective concentration,[1]; [10],100 µM
same,minimal effective concentration,"[1]; tc, read-out: POD endo.tc.24hr",100 µM
same,effect on cell viability in iPSC-ECs,"[1]; iPSC-ECs, 0.01-100 μM",did not affect cell viability
"Clc1ccc(Cl)c(-c2cc(Cl)ccc2Cl)c1 [PCB 52, 2,2′,5,5′-tetrachlorobiphenyl]",minimal effective concentration,HUVECs; [2],0.67 µM
same,minimal effective concentration,HUVECs; [3],0.57 µM
same,minimal effective concentration,HUVECs; [4],6.01 µM
same,minimal effective concentration,HUVECs; [5],4.97 µM
same,minimal effective concentration,HUVECs; [6],0.67 µM
same,minimal effective concentration,[1]; [7],100 µM
same,minimal effective concentration,[1]; [8],100 µM
same,minimal effective concentration,[1]; [9],100 µM
same,minimal effective concentration,[1]; [10],100 µM
same,minimal effective concentration,"[1]; tc, read-out: POD endo.tc.24hr",100 µM
"Clc1ccc(Cl)c(-c2c(Cl)ccc(Cl)c2Cl)c1 [PCB 95, 2,2′,3,5′,6-pentachlorobiphenyl]",minimal effective concentration,HUVECs; [2],0.01 µM
same,minimal effective concentration,HUVECs; [3],0.022 µM
same,minimal effective concentration,HUVECs; [4],7.41 µM
same,minimal effective concentration,HUVECs; [5],1.93 µM
same,minimal effective concentration,HUVECs; [6],0.01 µM
same,minimal effective concentration,[1]; [7],100 µM
same,minimal effective concentration,[1]; [8],100 µM
same,minimal effective concentration,[1]; [9],100 µM
same,minimal effective concentration,[1]; [10],100 µM
same,minimal effective concentration,"[1]; tc, read-out: POD endo.tc.24hr",100 µM
"Clc1ccc(-c2cc(Cl)c(Cl)c(Cl)c2)cc1Cl [PCB 126, 3,3′,4,4′,5-pentachlorobiphenyl]",minimal effective concentration,HUVECs; [2],5.33 µM
same,minimal effective concentration,HUVECs; [3],100 µM
same,minimal effective concentration,HUVECs; [4],100 µM
same,minimal effective concentration,HUVECs; [5],100 µM
same,minimal effective concentration,HUVECs; [6],5.33 µM
same,minimal effective concentration,[1]; [7],0.33 µM
same,minimal effective concentration,[1]; [8],0.33 µM
same,minimal effective concentration,[1]; [9],10.2 µM
same,minimal effective concentration,[1]; [10],100 µM
same,minimal effective concentration,"[1]; tc, read-out: POD endo.tc.24hr",0.34 µM
"Clc1cc(Cl)c(-c2cc(Cl)c(Cl)cc2Cl)cc1Cl [PCB 153, 2,2′,4,4′,5,5′-hexachlorobiphenyl]",minimal effective concentration,HUVECs; [2],0.0171 µM
same,minimal effective concentration,HUVECs; [3],0.75 µM
same,minimal effective concentration,HUVECs; [4],0.83 µM
same,minimal effective concentration,HUVECs; [5],1.01 µM
same,minimal effective concentration,HUVECs; [6],0.0171 µM
same,minimal effective concentration,[1]; [7],18.6 µM
same,minimal effective concentration,[1]; [8],18.6 µM
same,minimal effective concentration,[1]; [9],0.07 µM
same,minimal effective concentration,[1]; [10],62.5 µM
same,minimal effective concentration,"[1]; tc, read-out: POD endo.tc.24hr",49.2 µM
